From PubChem BioAssay AID1963974 (Molecular Pharmacology Branch, DTP, NCI, 2024)

Test system: 648629-189-R-J1-PDC spheroids with HUVEC/MSC, viability
Assay: Anticancer human tumor 648629-189-R-J1-PDC patient-derived bladder carcinoma cell line growth inhibition [PI3K]
Conditions: for viability, T/C: stronger effect = lower value
Text: Combinatorial screen of targeted agents with the PI3K inhibitors inavolisib, alpelisib, duvelisib, and copanlisib in multi-cell type tumor spheroids
A high-throughput screen of multi-cell type tumor spheroids was designed to identify active combinations of targeted small molecules and PI3K pathway inhibitors. Complex spheroids include a stromal component modeled by human endothelial cells (HUVEC) and fibroblasts modeled by human mesenchymal stem cells (MSCs). The concentration ranges selected for each drug and investigational agent were based upon clinically achievable concentrations if the clinical Cmax of the agent was known.
Compounds. The drugs and investigational agents: inavolisib (NSC800729), alpelisib (NSC765974), duvelisib (NSC772469), copanlisib (NSC816437), ipatasertib (NSC767898), afuresertib (NSC778305), talazoparib (NSC767125), sapanisertib (NSC764658), selumetinib (NSC741078), tovorafenib (DAY101, NSC766906), vemurafenib (NSC761431), ravoxertinib (NSC781343), sotorasib (NSC818433), MRTX1133 (NSC 836407), abemaciclib (NSC 768073), palbociclib (NSC758247), venetoclax (NSC 766270), SY5609 (NSC837396), enzalutamide (NSC755605), and darolutamide (NSC825331), were obtained from the National Cancer Institute (NCI) Developmental Therapeutics Program Chemical Repository. The FDA-approved anticancer drug set is available from the NCI Developmental Therapeutics Program. […] The stock solutions were prepared in dimethyl sulfoxide (DMSO, Sigma-Aldrich, St. Louis, MO, cat. D2650) at 800-fold the tested concentration and stored at -70 degrees C prior to their use. All drugs and investigational agents were tested over a range starting from a high concentration at or near the clinical Cmax and decreasing in half-log increments. If the clinical Cmax for an agent had not been determined, the highest concentration tested was 10 microM.
Cell Culture. All cells were maintained in an incubator at 37 degrees C and 5% CO2 with 95% humidity. The PDC lines were cultured according to standard operating procedures established by the NCI PDMR (https://pdmr.cancer.gov/sops/default.htm). All PDCs were thawed and cultured in Matrigel-coated flasks prepared with a working solution of 1X Ham's F-12 nutrient mix, without supplementation (Invitrogen, Waltham, MA, cat. 11765054), 100 U/mL penicillin-streptomycin (Invitrogen, cat. 15140122), and 2.5% Matrigel (Corning Inc., Corning, NY, cat. 354248) for the first three passages. The 354836-022-R-J1-PDC, 475296-252-R-J1-PDC, and 997726-040-R-J2-PDC lines were cultured in 6A media, which includes advanced DMEM/F-12 (Thermo Fisher Scientific, cat. 12634028), 10 mM HEPES (Thermo Fisher Scientific, cat. 15630080), 1X GlutaMAX supplement (Thermo Fisher Scientific, cat. 35050061), 0.1 mg/mL primocin (InvivoGen, San Diego, CA, cat. ant-pm-2), 10% defined fetal bovine serum, heat inactivated (HyClone Laboratories Inc., Logan, UT, cat. SH30070.03HI), 50% L-WRN conditioned media (ATCC, cat. CRL-3276), 1.25 mM N-Acetyl-L-cysteine (Sigma-Aldrich, cat. A9165), 10 mM nicotinamide (Sigma-Aldrich, cat. N0636), 1X B-27 supplement (Thermo Fisher Scientific, cat. 17504044), 1X N-2 supplement (Thermo Fisher Scientific, cat. 17502048), and 10 microM Y-27632 dihydrochloride (Tocris Bioscience, Bristol, United Kingdom, cat. 1254). The 624824-186-R-J2-PDC line was cultured in 6C/Colon 1B media, which includes all 6A media components plus 50 ng/mL human EGF recombinant protein (Thermo Fisher Scientific, cat. PHG0311). […]
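Further: spheroids exposed to agents for seven days before reading.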
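Wherever viability, T/C is given: percent of vehicle control luminescence where 100% = DMSO treated spheroids.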

SMILES: CC(Cn1ccc(-c2ccc(C#N)c(Cl)c2)n1)NC(=O)c1cc(C(C)O)[nH]n1 (centres undefined)
- viability, T/C (compound 0.0316 µM): 108% [middle of 4 runs]
- viability, T/C (compound 0.1 µM): 94.8% [middle of 4 runs]
- viability, T/C (compound 0.316 µM): 105% [middle of 4 runs]
- viability, T/C (compound 1 µM): 104% [middle of 4 runs]
- viability, T/C (compound 3.16 µM): 88.8% [middle of 4 runs]
- viability, T/C (compound 10 µM): 81.1% [middle of 4 runs]
- IC50 (curve of compound): > 10 µM

SMILES: C#Cc1c(F)ccc2cc(O)cc(-c3ncc4c(N5CC6CCC(C5)N6)nc(OCC56CCCN5CC(F)C6)nc4c3F)c12 (centres undefined) + CC(Nc1ccc2c(c1)OCCn1cc(N3C(=O)OCC3C(F)F)nc1-2)C(N)=O
- IC50 (curve of first compound, second compound 0.00316 µM): > 10 µM
- IC50 (curve of first compound, second compound 0.01 µM): > 10 µM
- IC50 (curve of first compound, second compound 0.0316 µM): > 10 µM
- IC50 (curve of first compound, second compound 0.1 µM): > 10 µM
- IC50 (curve of first compound, second compound 0.316 µM): > 10 µM
- IC50 (curve of first compound, second compound 1 µM): > 10 µM
- viability, T/C (second compound 0.00316 µM, first compound 0.0316 µM): 105%
- viability, T/C (second compound 0.00316 µM, first compound 0.1 µM): 96.2%
- viability, T/C (second compound 0.00316 µM, first compound 0.316 µM): 109%
- viability, T/C (second compound 0.00316 µM, first compound 1 µM): 96.6%
- viability, T/C (second compound 0.00316 µM, first compound 3.16 µM): 120%
- viability, T/C (second compound 0.00316 µM, first compound 10 µM): 102%
- viability, T/C (second compound 0.01 µM, first compound 0.0316 µM): 97.9%
- viability, T/C (second compound 0.01 µM, first compound 0.1 µM): 99.9%
- viability, T/C (second compound 0.01 µM, first compound 0.316 µM): 96.3%
- viability, T/C (second compound 0.01 µM, first compound 1 µM): 97%
- viability, T/C (second compound 0.01 µM, first compound 3.16 µM): 106%
- viability, T/C (second compound 0.01 µM, first compound 10 µM): 85.8%
- viability, T/C (second compound 0.0316 µM, first compound 0.0316 µM): 105%
- viability, T/C (second compound 0.0316 µM, first compound 0.1 µM): 100%
- viability, T/C (second compound 0.0316 µM, first compound 0.316 µM): 93.2%
- viability, T/C (second compound 0.0316 µM, first compound 1 µM): 99.1%
- viability, T/C (second compound 0.0316 µM, first compound 3.16 µM): 103%
- viability, T/C (second compound 0.0316 µM, first compound 10 µM): 92.5%
- viability, T/C (second compound 0.1 µM, first compound 0.0316 µM): 92.7%
- viability, T/C (second compound 0.1 µM, first compound 0.1 µM): 85.5%
- viability, T/C (second compound 0.1 µM, first compound 0.316 µM): 81.7%
- viability, T/C (second compound 0.1 µM, first compound 1 µM): 90%
- viability, T/C (second compound 0.1 µM, first compound 3.16 µM): 95.4%
- viability, T/C (second compound 0.1 µM, first compound 10 µM): 89.3%
- viability, T/C (second compound 0.316 µM, first compound 0.0316 µM): 82.3%
- viability, T/C (second compound 0.316 µM, first compound 0.1 µM): 75%
- viability, T/C (second compound 0.316 µM, first compound 0.316 µM): 71.7%
- viability, T/C (second compound 0.316 µM, first compound 1 µM): 74.8%
- viability, T/C (second compound 0.316 µM, first compound 3.16 µM): 80.8%
- viability, T/C (second compound 0.316 µM, first compound 10 µM): 75.3%
- viability, T/C (second compound 1 µM, first compound 0.0316 µM): 57.5%
- viability, T/C (second compound 1 µM, first compound 0.1 µM): 66.4%
- viability, T/C (second compound 1 µM, first compound 0.316 µM): 63.2%
- viability, T/C (second compound 1 µM, first compound 1 µM): 58.7%
- viability, T/C (second compound 1 µM, first compound 3.16 µM): 64.5%
- viability, T/C (second compound 1 µM, first compound 10 µM): 57.4%
